Like-named read-outs stand apart in the source and are kept apart here.
Experiments:
Type in all cases: cell-based
ER-α = biological target: T1, ER-α (Homo sapiens, UniProt P03372); test: Hormone receptor signaling pathway selectivity: ER-α mediated transcriptional response; conditions: with E2
T1 sequence (P03372 1-595): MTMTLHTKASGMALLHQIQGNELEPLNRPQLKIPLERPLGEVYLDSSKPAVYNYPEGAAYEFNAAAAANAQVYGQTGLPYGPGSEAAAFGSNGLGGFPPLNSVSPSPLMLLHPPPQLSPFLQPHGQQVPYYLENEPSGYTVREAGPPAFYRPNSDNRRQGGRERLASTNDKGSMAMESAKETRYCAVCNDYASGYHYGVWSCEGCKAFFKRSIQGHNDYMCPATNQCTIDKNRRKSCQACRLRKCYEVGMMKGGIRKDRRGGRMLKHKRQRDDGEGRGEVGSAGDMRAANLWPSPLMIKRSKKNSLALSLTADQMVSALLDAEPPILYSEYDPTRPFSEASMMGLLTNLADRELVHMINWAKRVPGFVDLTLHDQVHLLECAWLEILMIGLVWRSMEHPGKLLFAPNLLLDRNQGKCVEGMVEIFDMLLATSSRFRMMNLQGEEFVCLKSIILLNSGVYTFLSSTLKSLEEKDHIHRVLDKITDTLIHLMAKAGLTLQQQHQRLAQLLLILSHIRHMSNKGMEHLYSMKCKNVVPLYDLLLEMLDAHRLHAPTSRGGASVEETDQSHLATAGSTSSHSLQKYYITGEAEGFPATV

FXR = biological target: T2, FXR (Homo sapiens, UniProt Q96RI1); test: FXR luciferase reporter assay in HepG2 reporter cells; conditions: no ligand added; read-out: FXR (stimulation EC50)
T2 construct: HepG2 cells were stably transfected with either FXR reporter DNA; endogenous in cells; host or cells: HepG2 cells stably transfected with a 3x FXR response element PGL4.2 luciferase reporter
T2 sequence (Q96RI1 1-486): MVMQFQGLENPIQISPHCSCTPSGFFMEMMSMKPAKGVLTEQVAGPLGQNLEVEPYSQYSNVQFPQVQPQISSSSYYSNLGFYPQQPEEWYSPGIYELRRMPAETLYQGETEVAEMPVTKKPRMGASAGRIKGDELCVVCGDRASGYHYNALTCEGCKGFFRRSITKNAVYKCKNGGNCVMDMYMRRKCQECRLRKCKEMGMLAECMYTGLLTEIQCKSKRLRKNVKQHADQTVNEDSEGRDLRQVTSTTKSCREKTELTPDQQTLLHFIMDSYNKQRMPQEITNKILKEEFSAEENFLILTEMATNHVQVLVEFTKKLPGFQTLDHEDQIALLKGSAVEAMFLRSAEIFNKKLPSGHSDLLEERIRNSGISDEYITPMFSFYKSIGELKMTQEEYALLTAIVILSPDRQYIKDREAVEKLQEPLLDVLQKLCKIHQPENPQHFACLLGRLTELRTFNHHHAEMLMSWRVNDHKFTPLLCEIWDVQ
Description: FXR luciferase reporter cells—FXR luciferase reporter cells—HepG2 cancer cells were used in the screening study. HepG2 cells were stably transfected with either FXR reporter DNA in which 3 repeated response element ([…])(SEQ ID NO:2) was inserted in-PGL4.2 luciferase reporter plasmid or LXR reporter DNA in which 3 repeated response element ([…])(SEQ ID NO:3) was inserted in PGL4.2 luciferase reporter plasmid. Reporter cells were selected by puromycin (1 ug/mL) in RPMI-1640 medium with 10% FBS.
Luciferase assay—Reporter cells were treated with compounds at 0, 10, 20, 40, and […] for 24h in a 37° C.-CO2 incubator with or without chenodeoxycholic acid (CDCA) for FXR reporter cells or GW3965 for LXR reporter cells. Cells were lysed using luciferase lysis buffer after which luciferase buffer with luciferin was added to generate luminescence. Luminescence was recorded using a luminescence microplate reader.

VDR = biological target: T3, VDR (Homo sapiens, UniProt P11473); test: Hormone receptor signaling pathway selectivity: VDRE (VDR); conditions: for IC50: with VD3
T3 sequence (P11473 1-427): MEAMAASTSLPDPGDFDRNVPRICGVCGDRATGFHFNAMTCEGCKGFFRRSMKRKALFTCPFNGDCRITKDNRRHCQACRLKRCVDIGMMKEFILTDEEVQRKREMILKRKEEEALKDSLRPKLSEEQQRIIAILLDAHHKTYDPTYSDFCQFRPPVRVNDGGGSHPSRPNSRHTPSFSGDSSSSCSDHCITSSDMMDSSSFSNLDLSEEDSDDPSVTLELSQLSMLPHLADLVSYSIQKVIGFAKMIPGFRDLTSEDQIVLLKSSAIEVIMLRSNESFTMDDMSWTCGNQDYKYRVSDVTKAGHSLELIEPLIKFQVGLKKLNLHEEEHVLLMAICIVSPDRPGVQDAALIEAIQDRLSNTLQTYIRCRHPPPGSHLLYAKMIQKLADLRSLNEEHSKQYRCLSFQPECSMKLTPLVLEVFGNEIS

ER-β = ER-β (Homo sapiens, UniProt Q92731); test: Hormone receptor signaling pathway selectivity: ER-β; conditions: with E2
AR = biological target: T4, AR (Homo sapiens, UniProt P10275); test: Hormone receptor signaling pathway selectivity: AR; conditions: with DHT
T4 sequence (P10275 1-920): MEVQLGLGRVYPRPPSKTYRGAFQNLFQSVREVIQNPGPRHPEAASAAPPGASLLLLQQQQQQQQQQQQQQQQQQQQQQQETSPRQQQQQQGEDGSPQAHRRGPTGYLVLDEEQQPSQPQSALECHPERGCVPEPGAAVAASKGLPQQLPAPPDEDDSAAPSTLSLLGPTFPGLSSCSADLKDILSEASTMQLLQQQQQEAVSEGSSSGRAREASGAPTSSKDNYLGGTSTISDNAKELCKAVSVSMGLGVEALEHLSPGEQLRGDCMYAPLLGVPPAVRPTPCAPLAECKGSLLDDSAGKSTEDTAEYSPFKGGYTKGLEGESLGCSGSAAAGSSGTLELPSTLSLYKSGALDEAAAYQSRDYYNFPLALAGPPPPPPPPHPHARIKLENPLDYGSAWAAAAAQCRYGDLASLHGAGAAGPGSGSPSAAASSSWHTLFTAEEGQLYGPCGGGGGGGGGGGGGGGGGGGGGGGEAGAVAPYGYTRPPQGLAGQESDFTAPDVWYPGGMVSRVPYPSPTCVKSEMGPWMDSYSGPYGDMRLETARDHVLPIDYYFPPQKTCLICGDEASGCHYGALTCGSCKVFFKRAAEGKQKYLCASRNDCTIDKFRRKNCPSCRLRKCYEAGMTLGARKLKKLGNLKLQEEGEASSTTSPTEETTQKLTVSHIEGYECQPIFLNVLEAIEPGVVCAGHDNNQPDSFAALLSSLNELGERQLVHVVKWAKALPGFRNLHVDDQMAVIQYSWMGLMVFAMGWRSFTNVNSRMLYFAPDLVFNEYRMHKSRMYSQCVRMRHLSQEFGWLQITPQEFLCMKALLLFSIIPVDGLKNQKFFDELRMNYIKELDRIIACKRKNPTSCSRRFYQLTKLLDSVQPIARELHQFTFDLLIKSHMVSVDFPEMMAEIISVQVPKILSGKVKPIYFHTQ

[1] = read-out: ER-α with ligand E2 (inhibition IC50)
[2] = read-out: VDRE with ligand VD3 (inhibition IC50)
[3] = read-out: ER-β with ligand E2 (inhibition IC50)
[4] = read-out: AR with ligand DHT (inhibition IC50)
[5] = read-out: IC50, inhibition of VD3 action on VDR
[6] = read-out: IC50, inhibition of DHT action on AR

Chain of ER-β (Q92731 whole entry, species assumed): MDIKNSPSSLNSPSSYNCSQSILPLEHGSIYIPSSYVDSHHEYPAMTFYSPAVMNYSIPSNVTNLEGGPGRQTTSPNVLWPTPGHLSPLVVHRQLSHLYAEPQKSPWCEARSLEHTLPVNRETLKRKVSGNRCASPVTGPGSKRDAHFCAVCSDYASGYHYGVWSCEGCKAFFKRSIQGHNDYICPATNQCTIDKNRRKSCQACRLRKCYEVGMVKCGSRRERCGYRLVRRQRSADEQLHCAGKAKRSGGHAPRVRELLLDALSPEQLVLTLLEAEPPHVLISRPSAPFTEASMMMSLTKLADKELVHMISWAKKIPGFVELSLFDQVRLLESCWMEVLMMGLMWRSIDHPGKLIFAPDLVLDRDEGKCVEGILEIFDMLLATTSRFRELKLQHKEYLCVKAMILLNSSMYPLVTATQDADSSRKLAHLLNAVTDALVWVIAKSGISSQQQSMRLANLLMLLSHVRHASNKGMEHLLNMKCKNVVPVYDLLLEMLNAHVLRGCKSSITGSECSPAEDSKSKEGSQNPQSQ

With `CC(C)=CCCC(C(=O)O)C1CC(O)C2(C)C3=CCC4C(C)(CCC(O)C4(C)C)C3=CCC12C` (centres unmarked) [compound (V)] the IC50 (ER-α; [1]) was > 80 µM, the EC50 (FXR) was > 80 µM and the IC50 (VDR; [2]) was > 80 µM. The IC50 (ER-β; [3]) was > 80 µM and the IC50 (AR; [4]) was > 80 µM.

With `C=C(CC[C@@H](C)[C@H]1CC[C@H]2C3=C(C(=O)C[C@]12C)[C@@]1(C)CCC(=O)[C@@H](C)[C@@H]1CC3=O)[C@@H](C)C(=O)O` [compound (VIII)] the IC50 (ER-α; [1]) was > 80 µM, the EC50 (FXR) was > 80 µM and the IC50 (VDR; [5]) was 25 µM. For the same compound, the IC50 (ER-β; [3]) was > 80 µM and the IC50 (AR; [6]) was 25 µM.

For `C=C(CCC(C(=O)O)C1CCC2(C)C3=C(CCC12C)C1(C)CCC(O)C(C)(C)C1CC3)C(C)C` (centres unmarked) [compound (XII)], the IC50 (ER-α; [1]) was > 80 µM, the EC50 (FXR) was > 80 µM and the EC50 (VDR; biphasic model of action, read-out: EC50, stimulation of VDR activity) was 1500 nM. The IC50 (VDR; [2]) was > 80 µM, the IC50 (ER-β; [3]) was > 80 µM and the IC50 (AR; [4]) was > 80 µM.

`C=C(CC[C@@H](C)[C@H]1CC[C@H]2C3=C(C(=O)C[C@]12C)[C@@]1(C)CCC(=O)[C@@H](C)[C@@H]1C[C@@H]3O)[C@@H](C)C(=O)O` [compound (IV)] was tested, and the IC50 (ER-α; [1]) was 70 µM, the IC50 (ER-α; read-out: IC50, inhibition of E2 triggered ERα mediated transcriptional response) was ~80 µM and the EC50 (FXR) was > 80 µM. For the same compound, the IC50 (VDR; [2]) was > 80 µM, the IC50 (ER-β; [3]) was > 80 µM and the IC50 (AR; [4]) was > 80 µM.

In the case of `C=C(CC[C@@H](C)[C@H]1CC[C@H]2C3=C(C(=O)C[C@]12C)[C@@]1(C)CCC(=O)[C@@H](C)[C@@H]1C[C@@H]3O)[C@H](C)C(=O)O` [compound (III)], the IC50 (ER-α; [1]) is reported as > 80 µM, the EC50 (FXR) is reported as > 80 µM and the IC50 (VDR; [2]) is reported as > 80 µM. For the same compound, the IC50 (ER-β; [3]) was > 80 µM and the IC50 (AR; [4]) was > 80 µM.

With `C=C(CC[C@@H](C)[C@H]1CC[C@H]2C3=C(C(=O)C[C@]12C)[C@@]1(C)CCC(=O)[C@@H](C)[C@@H]1CC3=O)[C@H](C)C(=O)O` [compound (VII)] the IC50 (ER-α; [1]) was > 80 µM, the EC50 (FXR) was > 80 µM and the IC50 (VDR; [5]) was 20 µM. For the same compound, the IC50 (ER-β; read-out: IC50, inhibition of E2 action on ERβ) was 40 µM and the IC50 (AR; [6]) was 40 µM.
